The nature of series [1]: Mouse PO pharmacokinetics 10 mg/kg. Particulars: in vivo, PO 10 mg/kg, [ ] = range.
The next series concerns the target T1, Pgp (Homo sapiens, UniProt P08183).
T1 construct: endogenous in cells; host or cells: Caco-2
In words: Pgp efflux, Caco-2. It counts as in vitro ADME. For orientation: Caco-2 monolayers are a common model of the intestinal barrier.

The nature of another series: Caco-2 permeability Papp. It counts as in vitro ADME. Particulars: human.
A short description of series [2]: Mouse IV pharmacokinetics. It counts as in vivo. Particulars: whole blood, [ ] = range; for Vd: read-out: Vss.
A further series concerns the target hERG (Homo sapiens, UniProt Q12809). In words: hERG (patch clamp). It counts as cell-based. (In general: Block of hERG is tested as a sign of cardiac risk.)
Series [3] in a line: Intrinsic clearance Cli, mouse. It counts as in vitro ADME.
The next series concerns the target CYP450 2C19 (Homo sapiens, UniProt P33261). Description: CYP450 inhibition. It counts as in vitro ADME. Particulars: 2C19, at 1 uM.
In series [4] the test system is KMH2 (Hodgkin's lymphoma) cells. Description: Trypan blue exclusion cell viability assay. It counts as cell-based. Particulars: Homo sapiens, KM-H2, 72 h. As for the experimental part:
(§1) Cell viability assay. B and T cell viability was measured using the trypan blue exclusion method. Cells were grown in confluency conditions (2×10^6 cells/mL maximum) assuring the minimum basal apoptosis. […] Cell viability was quantified using the TC10™ automated cell counter (Biorad).
(§2) […]. The drugs were dissolved in DMSO to make 100× stock solutions for each concentration tested, so that the final volume of DMSO in each well was 1%. The viability of cells treated with these inhibitors was measured with a trypan blue exclusion assay (Hudson, 1976).
(§3) Cell viability was then quantified using the TC10™ automated cell counter (Biorad).

For series [5], the system named is IM-9 ("normal" EBV immortalized B cell). In words: Trypan blue exclusion cell viability assay. It counts as cell-based. Particulars: Homo sapiens, IM-9 cells, 72 h. As for the experimental part: as §1, §2, §3
Series [6] can be described thus: Intrinsic clearance Cli, human. It counts as in vitro ADME.
A short description of a further series: Fu plasma, human. It counts as in vitro ADME.
Series [7] in a line: Intrinsic clearance Cli, rat. It counts as in vitro ADME.
Series [8] relates to BL-2 (Burkitt's lymphoma) cells. Description: Trypan blue exclusion cell viability assay. It counts as cell-based, human. As for the experimental part:
as §1
(§4) The drugs were dissolved in DMSO to make 100× stock solutions for each concentration tested, so that the final volume of DMSO in each well was 1%.
as §3

Series [9] deals with Ramos (Burkitt's lymphoma) cells. Description: Trypan blue exclusion cell viability assay. It counts as cell-based, human. Particulars: Homo sapiens, 72 h. As for the experimental part:
as §1, §4, §3

The nature of another series: Fu Brain. It counts as in vitro ADME.
Series [10] has as its system KMH2 (Hodgkin's lymphoma) cells. Description: MTS cell viability assay. It counts as cell-based. Particulars: Homo sapiens, KM-H2, 72 h. As for the experimental part:
(§5) […]. The drugs were dissolved in DMSO to make 100× stock solutions for each concentration tested, so that the final volume of DMSO in each well was 1%. MTS [(3-(4,5-dimethylthiazol-2-yl)-5-(3-carboxymethoxyphenyl)-2-(4-sulfophenyl)-2H-tetrazolium)] assay was used to measure the cytotoxicity of the drug (Cory et al., 1991).
(§6) In FIG. 9, Panel B, DDD86481 was used to treat BL cells and control cell lines [IM9 (“normal” B lymphocyte) and KMH2 (HL cell line) that expresses both NMTs]. […]. The EC50 data are summarized as follows.
On the technique in general: Tetrazolium dyes change colour on reduction, which living cells bring about.

The test system of series [11] is IM-9 ("normal" EBV immortalized B cell). In words: MTS cell viability assay. It counts as cell-based. Particulars: Homo sapiens. As for the experimental part:
as §5, §6

The nature of a further series: B:B Ratio. It counts as in vivo. Particulars: brain / blood.
The test system of series [12] is BL-2 (Burkitt's lymphoma) cells. In words: MTS cell viability assay. It counts as cell-based, human. As for the experimental part: as §5, §6
The test system of series [13] is Ramos (Burkitt's lymphoma) cells. Description: MTS cell viability assay. It counts as cell-based, human. As for the experimental part: as §5, §6
Series [14] has as its system myristoylation in BL2 cells. Description: Inhibition of myristoylation, alkynyl-myristate labeling and click chemistry. It counts as cell-based, human. As for the experimental part:
(§7) Cells were labeled with 100 to 25 μM ω-alkynyl myristic acid 30 min prior to harvesting the cells and lysed in 0.1% SDS-RIPA-HEPES buffer. Protein (50-30 μg) from the resulting cell lysates were reacted with 100 μM azido-biotin using click chemistry and processed as described previously (Yap et al., 2010). Briefly, cells were starved of fatty acids by incubating in media (RPMI or DMEM) which were supplemented with 5% dextran-coated charcoal-treated FBS (DCC-FBS) for 1 h prior to labeling. Next, ω-alkynyl-myristic acid was dissolved in DMSO to generate 25 or 100 mM stock solutions. Typically, the cellular uptake of ω-alkynyl myristic acid typically was improved with saponification and conjugation to BSA. Therefore, prior to labeling, ω-alkynyl myristic acid was saponified with 20% molar excess of potassium hydroxide at 65° C. for 15 min. Next, serum-free culture media (pre-warmed) containing 20% fatty acid-free BSA at 37° C. was added to the saponified ω-alkynyl myristic acid and incubated for an additional 15 min at 37° C.
(§8) Subsequently, cells deprived of fatty acids were washed once with warm PBS and incubated in fresh RPMI or DMEM without any supplements. Next, the appropriate volume of 20× fatty acid-BSA conjugate in serum-free media was added to the cells, to ensure that the final concentration of BSA was 1% and Q-alkynyl myristic acid was at the indicated concentration (25 μM or 100 μM) for each respective experiment. DMSO or unlabeled fatty acids conjugated to BSA were used as controls for the experiments performed. Cells were labeled with ω-alkynyl myristic acid for 30 min at 37° C. in a 5% CO2 humidified incubator prior to harvesting. Cells were harvested in 0.1% SDS-RIPA-HEPES buffer that was supplemented with 1× complete protease inhibitor (EDTA-free).
(§9) After labeling cells with ω-alkynyl myristic acid, the resulting lysates were subjected to click chemistry with azido-biotin to enable the detection of the myristoylated proteins by ECL as described previously (Yap et al., 2010). Typically, cell lysates (30-50 μg of protein) were adjusted to contain 1% SDS and incubated with 100 μM Tris-(benzyltriazolylmethyl)amine (TBTA), 1 mM CuSO4, 1 mM Tris-carboxyethylphosphine (TCEP), and 100 μM azido-biotin at 37° C. for 30 min in darkness, in order for the click reaction to proceed. Next, 10 volumes of ice-cold acetone was added to stop the click reaction and proteins were precipitated at −20° C. overnight. Subsequently, the acetone precipitated proteins were centrifuged at 16,000 g for 10 min, resuspended in 1×SDS-PAGE sample buffer with 20 mM DTT. […]
(§10) In FIG. 9 E, the minimal dose of DDD86481 required to inhibit myristoylation in IM-9, BL2 and Ramos cell lines, was determined. […]

Series [15] has as its system myristoylation in IM-9 cells. The series is described as above. It counts as cell-based, human. As for the experimental part:
as §7, §8, §9, §10

The nature of the next series: Fu plasma, mouse. It counts as in vitro ADME.
Series [16] relates to myristoylation in Ramos cells. In words: Inhibition of myristoylation, alkynyl-myristate labeling and click chemistry. Particulars: 2 h treatment. It counts as cell-based, human. Here is the method: as §7
Subsequently, cells deprived of fatty acids were washed once with warm PBS and incubated in fresh RPMI or DMEM without any supplements. […]
as §10

A further series relates to BL (BL2 and Ramos) cells. In words: Induction of apoptosis, PARP-1 and caspase-3 cleavage by western blotting. It counts as cell-based, human. Particulars: BL cell lines, 72 h. As for the experimental part:
(§11) “Normal” immortalized B lymphocytes (IM9), KMH2 (Hodgkin's lymphoma) and BL (BL2 and Ramos) cells were incubated with increasing concentrations (nM) of DDD86481 and monitored the cleavage of poly-ADP-ribose polymerase-1 (PARP-1) and caspase-3 after the 72 h time point. Western blotting was performed on cell lysates to monitor the cleavage or PARP-1 and caspase-3 as well as the presence of GAPDH as loading control (composite gels).

The subject of series [17] is KMH2 (Hodgkin's lymphoma) cells. The series is described as above. It counts as cell-based, human. Particulars: KMH2, 72 h. Here is the method: as §11
Series [18] relates to "Normal" immortalized B lymphocytes (IM9). The series is described as above. Particulars: IM9, 72 h. It counts as cell-based, human. As for the experimental part: as §11

Molecules are shown by their SMILES.

CYP450 2C19, sequence (P33261 whole entry): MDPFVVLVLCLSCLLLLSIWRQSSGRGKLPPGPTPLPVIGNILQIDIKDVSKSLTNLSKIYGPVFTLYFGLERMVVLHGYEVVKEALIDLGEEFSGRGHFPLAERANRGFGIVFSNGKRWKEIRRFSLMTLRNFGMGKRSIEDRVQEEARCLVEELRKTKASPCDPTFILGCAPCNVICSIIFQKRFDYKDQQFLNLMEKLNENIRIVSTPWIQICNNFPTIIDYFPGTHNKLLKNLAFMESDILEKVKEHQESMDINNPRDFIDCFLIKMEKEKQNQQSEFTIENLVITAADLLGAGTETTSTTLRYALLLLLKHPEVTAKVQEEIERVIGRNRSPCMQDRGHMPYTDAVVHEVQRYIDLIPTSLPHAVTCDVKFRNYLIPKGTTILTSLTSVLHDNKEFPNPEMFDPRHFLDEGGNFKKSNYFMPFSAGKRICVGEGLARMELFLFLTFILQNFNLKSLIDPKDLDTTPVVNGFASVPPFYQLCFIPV
T1 sequence (P08183 whole entry): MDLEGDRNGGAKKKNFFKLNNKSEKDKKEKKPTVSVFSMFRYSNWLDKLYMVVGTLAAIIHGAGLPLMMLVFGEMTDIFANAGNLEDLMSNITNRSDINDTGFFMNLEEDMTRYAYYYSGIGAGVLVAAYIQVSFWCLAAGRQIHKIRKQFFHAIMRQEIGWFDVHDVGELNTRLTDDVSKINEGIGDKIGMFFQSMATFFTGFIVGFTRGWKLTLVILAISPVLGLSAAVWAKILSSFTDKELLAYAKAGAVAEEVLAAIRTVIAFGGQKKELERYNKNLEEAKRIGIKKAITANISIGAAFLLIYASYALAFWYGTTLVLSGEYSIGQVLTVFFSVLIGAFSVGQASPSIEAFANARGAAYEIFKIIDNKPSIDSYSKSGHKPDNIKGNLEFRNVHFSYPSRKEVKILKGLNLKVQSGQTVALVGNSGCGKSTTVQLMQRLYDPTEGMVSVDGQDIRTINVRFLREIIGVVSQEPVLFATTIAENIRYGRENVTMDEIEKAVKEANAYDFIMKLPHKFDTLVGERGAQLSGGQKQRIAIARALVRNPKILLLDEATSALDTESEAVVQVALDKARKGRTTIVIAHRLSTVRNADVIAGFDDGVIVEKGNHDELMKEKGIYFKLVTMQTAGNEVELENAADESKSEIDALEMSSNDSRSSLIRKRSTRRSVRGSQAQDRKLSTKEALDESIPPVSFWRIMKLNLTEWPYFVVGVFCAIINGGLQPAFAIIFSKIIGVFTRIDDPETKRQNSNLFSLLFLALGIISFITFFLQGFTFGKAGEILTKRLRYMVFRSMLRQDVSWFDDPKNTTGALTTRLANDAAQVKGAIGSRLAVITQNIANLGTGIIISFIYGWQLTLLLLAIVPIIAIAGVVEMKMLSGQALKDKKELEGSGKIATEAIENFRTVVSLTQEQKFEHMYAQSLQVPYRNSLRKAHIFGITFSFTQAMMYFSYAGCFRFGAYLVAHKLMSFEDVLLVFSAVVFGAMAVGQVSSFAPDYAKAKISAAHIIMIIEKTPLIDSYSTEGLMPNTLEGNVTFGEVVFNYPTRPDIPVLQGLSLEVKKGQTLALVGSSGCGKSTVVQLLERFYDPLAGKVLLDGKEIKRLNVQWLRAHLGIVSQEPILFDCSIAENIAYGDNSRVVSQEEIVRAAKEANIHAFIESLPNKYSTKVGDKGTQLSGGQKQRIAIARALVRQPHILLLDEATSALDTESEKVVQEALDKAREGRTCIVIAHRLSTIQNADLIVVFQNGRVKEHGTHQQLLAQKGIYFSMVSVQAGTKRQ
hERG, sequence (Q12809 whole entry): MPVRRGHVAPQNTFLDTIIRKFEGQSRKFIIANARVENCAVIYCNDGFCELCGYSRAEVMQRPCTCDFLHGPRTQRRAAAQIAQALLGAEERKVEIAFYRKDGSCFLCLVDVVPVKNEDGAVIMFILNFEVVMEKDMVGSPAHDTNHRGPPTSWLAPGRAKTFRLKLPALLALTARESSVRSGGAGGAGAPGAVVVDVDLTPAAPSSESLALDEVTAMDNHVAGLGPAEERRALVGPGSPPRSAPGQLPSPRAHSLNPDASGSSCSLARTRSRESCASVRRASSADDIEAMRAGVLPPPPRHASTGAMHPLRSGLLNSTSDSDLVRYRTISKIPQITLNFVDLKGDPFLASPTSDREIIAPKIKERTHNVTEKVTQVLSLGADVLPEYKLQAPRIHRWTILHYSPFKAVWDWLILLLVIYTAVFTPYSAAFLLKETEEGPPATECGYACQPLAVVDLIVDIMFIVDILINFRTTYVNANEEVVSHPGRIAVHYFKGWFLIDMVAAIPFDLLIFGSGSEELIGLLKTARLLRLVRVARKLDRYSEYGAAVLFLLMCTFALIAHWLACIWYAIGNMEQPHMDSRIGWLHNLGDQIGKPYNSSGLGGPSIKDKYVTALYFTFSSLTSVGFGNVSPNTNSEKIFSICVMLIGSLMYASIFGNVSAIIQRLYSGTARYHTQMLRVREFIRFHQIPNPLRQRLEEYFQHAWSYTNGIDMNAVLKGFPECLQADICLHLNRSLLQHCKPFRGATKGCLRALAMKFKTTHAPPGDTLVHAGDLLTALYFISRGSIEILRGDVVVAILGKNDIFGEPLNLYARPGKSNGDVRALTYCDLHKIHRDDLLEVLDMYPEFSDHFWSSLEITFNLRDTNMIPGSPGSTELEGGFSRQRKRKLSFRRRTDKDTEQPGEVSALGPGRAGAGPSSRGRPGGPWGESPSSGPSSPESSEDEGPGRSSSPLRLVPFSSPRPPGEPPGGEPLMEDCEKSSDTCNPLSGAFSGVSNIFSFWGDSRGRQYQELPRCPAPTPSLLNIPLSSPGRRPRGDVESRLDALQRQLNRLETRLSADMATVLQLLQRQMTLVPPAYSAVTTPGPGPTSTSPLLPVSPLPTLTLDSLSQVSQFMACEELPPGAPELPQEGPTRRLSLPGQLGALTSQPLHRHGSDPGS

For orientation: Cmax means the maximum level reached in the sampled fluid or tissue. As a reminder, the Tmax is the time at which the peak concentration occurs. Broadly, the Papp A→B is how fast a substance crosses the layer from the apical side. Read a high Papp A→B as ready permeation. Broadly, the half-life is the time in which the quantity being followed falls by half. A word on the EC50: it is the concentration needed to bring the measured effect to its halfway point. By fraction unbound is commonly meant the share of the substance not bound to proteins or other matrix. A low value points to little free substance. The molecule `Cc1nn(C)c(C)c1NS(=O)(=O)c1c(Cl)cc(-c2ccnc(N3CCNCC3)c2)cc1Cl` [DDD85646] yielded a Cmax in series [1] of 2690 ng/mL. For the same molecule, the Tmax in series [1] was 0.25 h. The Pgp result at Pgp is “YES (Efflux ratio =”. The molecule further showed an apparent permeability from apical to basolateral (Papp A→B) in “Caco-2 permeability Papp” of 4.3 ×10⁻⁶ cm/s. The half-life in [2] was 1.3 h. Besides, the Vd in series [2] was 0.6 L/kg. Also, the “hERG (patch clamp)” value on hERG is on record as 27.7. Moreover, the “Cli Mouse” value in series [3] came out at 0.6 mL/min/g. The CYP450 inhibition on CYP450 2C19 was 2C19 (19% at 1 uM). For the same molecule, the EC50 in series [4] was 29600 nM; in series [5] it was 7080 nM; in [8] (Homo sapiens, BL2, 72 h) it was 430 nM; in series [9] it was 370 nM. Moreover, the “Cli Human” value in series [6] is listed as 1.2 mL/min/g. Besides, the fraction unbound amounted to 0.176 in the series “Fu plasma, human” and 0.068 in “Fu Brain”. Besides, in series [7], the “Cli Rat” value came to 0.5 mL/min/g. The “times more sensitive than cells expressing both NMTs” value in series [8] (BL-2 and Ramos vs immortalized "normal" B cells or KMH2, trypan blue) is 15-72 times.

For orientation: EC90 means the concentration needed for an effect of 90%. By Kp is commonly meant tissue or fluid exposure divided by exposure in the circulation. In the case of `Cc1c(NS(=O)(=O)c2c(Cl)cc(-c3ccnc(N4CCNCC4)c3)cc2Cl)c(CC(C)C)nn1C` [DDD86481], in series [1], the peak level (Cmax) was 11200 ng/mL. The Tmax in series [1] is 2 h. In addition, the half-life was 5.7 h in series [1] and 1.5 h in series [2]. The EC50 in [10] was found to be 12600 nM; in series [11] (IM-9 cells, 72 h, MTS) it was 2200 nM; in series [12] (Homo sapiens, BL2, 72 h), 58 nM; in series [13] (Homo sapiens, Ramos, 72 h), 42 nM. Further, the 90% effect concentration (EC90) is 134000 nM in [11] (IM-9, IM9 cells, calculated from FIG. 9B); 210 nM in [12] (Homo sapiens, BL2); 400 nM in [13] (Homo sapiens, Ramos). The Vd in series [2] stood at 0.4 L/kg. For the same molecule, in “B:B Ratio”, the Kp is 0.04. Moreover, the “Cli Mouse” value in series [3] is given as less than 0.5 mL/min/g. Also, the “times more sensitive than cells expressing both NMTs” value in [12] (BL-2 and Ramos vs immortalized "normal" B cells or KMH2, MTS) is reported as 15-72 times. For the same molecule, in [13] (ratios of the EC50's and EC90's, normal B cell line vs Burkitt lymphoma cell lines), the “factor by which cancer cells are preferentially killed” value is on record as more than 300 fold. The “Cli Human” value in [6] was determined as 0.7 mL/min/g. Also, the inhibition of myristoylation result in series [14] (BL2, 1 μM, after one hour of treatment) is given as “nearly complete inhibition of myristoylation”; in series [15] (IM-9, 1 μM, after one hour of treatment), “nearly complete inhibition of myristoylation”. For the same molecule, the “minimal dose at which incorporation of alkyne-myristate label decreases” value in series [14] (BL-2, 2 h treatment) is listed as 50 nM; in series [15] (IM-9, 2 h treatment) it was 100 nM; in series [16], 50 nM. The molecule also gave an unbound share (fraction unbound) in “Fu plasma, mouse” of 0.067. In addition, in [7], the “Cli Rat” value came out at 1.0 mL/min/g. In addition, the “PARP-1 and caspase-3 cleavage” value with BL (BL2 and Ramos) cells is recorded as “occurred in a dose-dependent fashion”; in [18] it was “No PARP-1 or caspase-3 cleavage was observed”. Also, in [17], the PARP-1 cleavage result is listed as “observed at higher concentrations, although it was minimal”.

Values taken from US20250179589A1, “SYNTHETIC LETHALITY AND THE TREATMENT OF CANCER” (PACYLEX PHARMACEUTICALS INC., priority 2012, published 2025).
